Laboratory results reported in patent publication US10413557B2, “Prodrugs of 17.BETA.-HSD1-inhibitors” (FORENDO PHARMA LTD, priority 2014, dated 2019).
Values after ≈ are worked out from the molar mass of the structure shown.

Tests used:
Aqueous solubility test = type: physicochemical; conditions: for solubility: buffer solution, aqueous buffer, thermodynamic from solid, rt, buffer pH 7.4, stirred 48 hours or less, HPLC
Protocol: The pH of the mixtures was held constant during the study. Excess amounts or a known amount of each component are added to 1 or 0.5 ml of buffer solution and the mixtures were stirred at rt for 48 hours or less, filtered (0.45 μm Millipore) and analyzed by HPLC.

[1] = Metabolic stability assay; type: in vitro ADME; conditions: human liver homogenate or microsomes
Protocol: The in vitro metabolic stability of the parent compounds was determined for exemplified compounds using human liver microsome and homogenate incubations. The incubation time points used with or without appropriate cofactors were 0 min and 60 min. Samples were collected at both time points and substrates were detected using LC/PDA/TOF-MS. In vitro metabolic stability (% remaining after 60 min in human liver homogenate or microsomes) of the compounds were calculated and the results are summarized in Table 4.

[2] = target: T1, recombinant human 17β-HSD2 (Homo sapiens, UniProt P37059); test: Inhibition of recombinant human 17β-HSD2 (conversion of 3H-estradiol to estrone, HPLC); type: biochemical; conditions: inhibitor 1 μM; 50 nM estradiol, 1 mM NADH, 30 min RT
T1 construct: made in house; host or cells: Sd9 (Sf9) insect cells, baculovirus (Bac to Bac Expression System)
T1 sequence (P37059 1-387): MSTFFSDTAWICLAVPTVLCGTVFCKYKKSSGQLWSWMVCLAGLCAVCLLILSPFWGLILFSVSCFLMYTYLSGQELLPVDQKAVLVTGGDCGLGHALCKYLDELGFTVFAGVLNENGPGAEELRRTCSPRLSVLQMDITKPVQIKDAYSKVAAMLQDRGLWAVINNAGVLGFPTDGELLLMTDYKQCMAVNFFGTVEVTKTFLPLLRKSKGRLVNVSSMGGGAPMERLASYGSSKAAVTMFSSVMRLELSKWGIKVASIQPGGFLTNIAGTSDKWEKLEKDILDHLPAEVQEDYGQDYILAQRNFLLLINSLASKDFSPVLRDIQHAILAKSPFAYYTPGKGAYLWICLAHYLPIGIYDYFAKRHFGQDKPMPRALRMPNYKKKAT
Protocol: 17β-HSD2 production and isolation: Similarly to 17β-HSD1 the Recombinant baculovirus was generated by the “Bac to Bac Expression System” (Invitrogen). Recombinant bacmid was transfected to Sd9 insect cells using “Cellfectin Reagent” (Invitrogen). 60 h later cells were harvested and supernatant were fractionated by the following protocol: • cells were dissolved into 40 ml of A-buffer (40 mM TRIS, pH8.0, 20% glycerol, 20 μM NAD, 0.4 mM PMSF, 150 mM NaCl, 0.5% dodecyl-β-maltoside+protease inhibitor cocktail) • cells were sonicated • lysate was incubated on ice for 15 min • lysate was centrifuged 5000 rpm 15 min, +4° C. • centrifugation of the supernatant 180 000 g 30 min, +4° C. • pellet was dissolved into 8 ml of A-buffer • not resuspended material was removed by centrifugation 5000 rpm 15 min, +4° C. • the clear supernatant was divided into 100 μl aliquots and were stored frozen until determination of enzymatic activity.
The amount of 17β-HSD2 was analysed by immunoblotting and total protein concentration of each extract batch was determined.
Assay—Inhibition of recombinant human 17β-HSD2: Protein homogenate (4 μg/ml) was incubated in 20 mM KH2PO4 pH 8.5 with 50 nM estradiol (including 800 000 cpm/ml of ^3H-estradiol) and 1 mM […] for 30 min at RT, in the presence of the potential inhibitor at concentrations 1 μM or 0.1 μM. Inhibitor stock solutions were prepared in DMSO. Final concentration of DMSO was adjusted to 1% in all samples. The enzyme reaction was stopped by addition of 10% trichloroacetic acid (final concentration). Samples were centrifuged in a microtiter plate at 4000 rpm for 10 min. Supernatants were applied to reverse phase HPLC on a Waters Symmetry C18 column, equipped with a Waters Sentry Guard column. Isocratic HPLC runs were performed at RT at a flow rate ofl ml/min in acetonitrile:water 48:52 as running solvent. Radioactivity was monitored in the eluate by a Packard Flow Scintillation Analyzer. Total radioactivity for estrone and estradiol were determined in each sample and percent conversion of estradiol to estrone was calculated according to the following formula:
(§1) Percent inhibition was calculated flowingly: % inhibition=100−% conversion

[3] = target: T2, recombinant human 17β-HSD1 (Homo sapiens, UniProt P14061); test: Inhibition of recombinant human 17β-HSD1 (conversion of 3H-estrone to estradiol, HPLC); type: biochemical; conditions: inhibitor 1 μM; 30 nM estrone, 1 mM NADPH, 30 min RT; read-out: 17β-HDS1 Inhibition % at 1 μM
T2 construct: made in house; host or cells: Sd9 (Sf9) insect cells, baculovirus (Bac to Bac Expression System)
T2 sequence (P14061 1-328): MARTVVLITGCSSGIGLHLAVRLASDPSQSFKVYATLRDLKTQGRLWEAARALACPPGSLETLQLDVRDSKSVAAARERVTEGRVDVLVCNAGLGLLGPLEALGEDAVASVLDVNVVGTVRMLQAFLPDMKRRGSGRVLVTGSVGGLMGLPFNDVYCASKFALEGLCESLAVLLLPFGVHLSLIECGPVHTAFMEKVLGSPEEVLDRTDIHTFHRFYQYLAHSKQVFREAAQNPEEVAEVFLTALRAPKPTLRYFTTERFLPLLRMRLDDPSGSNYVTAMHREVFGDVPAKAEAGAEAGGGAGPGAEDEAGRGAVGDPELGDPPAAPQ
Protocol: 17β-HSD1 production and isolation: Recombinant baculovirus was generated by the “Bac to Bac Expression System” (Invitrogen). Recombinant bacmid was transfected to Sd9 insect cells using “Cellfectin Reagent” (Invitrogen). 60 h later cells were harvested; the microsomal fraction was isolated as described by Puranen, T. J., Poutanen, M. H., Peltoketo, H. E., Vihko, P. T. and Vihko, R. K. (1994) Site-directed mutagenesis of the putative active site of human 17 β-hydroxysteroid dehydrogenase type 1. Biochem. J. 304: 289-293. Aliquots were stored frozen until determination of enzymatic activity.
Assay—Inhibition of recombinant human 17β-HSD1: Protein homogenate (0.1 μg/ml) was incubated in 20 mM KH2PO4 pH 7.4 with 30 nM estrone (including 800 000 cpm/ml of ^3H-estrone) and 1 mM NADPH for 30 min at RT, in the presence of the potential inhibitor at concentrations 1 μM or 0.1 μM. Inhibitor stock solutions were prepared in DMSO. Final concentration of DMSO was adjusted to 1% in all samples. The enzyme reaction was stopped by addition of 10% trichloroacetic acid (final concentration). Samples were centrifuged in a microtiter plate at 4000 rpm for 10 min. Supernatants were applied to reverse phase HPLC on a Waters Symmetry C18 column, equipped with a Waters Sentry Guard column. Isocratic HPLC runs were performed at RT at a flow rate of 1 ml/min in acetonitrile:water 48:52 as running solvent. Radioactivity was monitored in the eluate by a Packard Flow Scintillation Analyzer. Total radioactivity for estrone and estradiol were determined in each sample and percent conversion of estrone to estradiol was calculated according to the following formula:
as §1

[4] = Determination of bioavailability: oral pharmacokinetics in Cynomolgus monkeys; type: in vivo; conditions: dose corresponding to 10 mg/kg of parent drug, 0.5% Carboxymethyl cellulose in water
Protocol: This study was performed in order to determine bioavailability of the present compounds in vivo. All animal experiments are performed in accordance with standards of ethical conduct and appropriate institutional animal care and use policies.
The pharmacokinetic studies of the compounds of the invention were assessed in Cynomolgus monkeys. The study compounds were administrated orally at a dose level corresponding to 10 mg/kg of parent drug. The common aqueous formulation, 0.5% Carboxymethyl cellulose in water, was used as a vehicle. The blood samples were obtained by direct venipuncture at pre-dose, and ten sequential time points after oral administration.
The quantitative bioanalysis of plasma samples were performed in accordance with the guidance Bioanalytical Method Validation (FDA, 2001) and the Guideline on Bioanalytical Method Validation (European Medicines Agency, 2011). Analytical method was optimized for suitable chromatographic (peak shape, retention) and mass spectrometric (ionization efficiency) properties.
A non-compartmental pharmacokinetic analysis was carried out with individual plasma concentration-time curves using WinNonlin® Professional Version 6.3 (Pharsight Corporation): […]
The area under the concentration-time curve from 0 to the last measurable concentration (AUCt) was calculated using the linear-log trapezoidal rule.

Compound | solubility (Aqueous solubility test) [µg/mL] | aqueous solubility, in words (Aqueous solubility test; comment on Table 5, compared with parent VIV-1) | In vitro metabolic stability, % remaining after 60 min [1] [%] | inhibition at 1 µM [2] [%] | inhibition at 1 µM [3] [%] | Cmax [4] [ng/mL] | AUCt ([4]; 0 to last measurable concentration) [ng·h/mL]
CO/N=C1\C[C@@H](CCC(=O)Nc2ncc(C)s2)C2C3CCc4cc(OC(=O)CN)ccc4C3CC[C@]12C (stereo partly drawn) [Compound 3, Aminoacetic acid (13S,15R)-13-methyl-17[(E)-methoxyimino]-15-[2-(5-methyl-thiazol-2-ylcarbamoyl)-ethyl]-7,8,9,11,12,13,14,15,16,17-decahydro-6H-cyclopenta[a]phenanthren-3-yl ester] | 2.37 (≈ 4.52 µM) | improved aqueous solubility | – | – | – | – | –
CO/N=C1\C[C@@H](CCC(=O)Nc2ncc(C)s2)C2C3CCc4cc(O)ccc4C3CC[C@]12C (stereo partly drawn) [VIV-1, 3-{(13S,15R)-3-Hydroxy-17-[(E)-methoxyimino]-13-methyl-7,8,9,11,12,13,14,15,16,17-decahydro-6H-cyclopenta[a]phenanthren-15-yl}-N-(5-methylthiazol-2-yl)propanamide] | < 0.52 | – | 73 | 4 | 95 | – | –
Phosphoric acid mono-{(13S,15R)-17-[(E)-methoxyimino]-13-methyl-15-[2-(5-methylthiazol-2-ylcarbamoyl)ethyl-7,8,9,11,12,13,14,15,16,17-decahydro-6H-cyclopenta[a]phenanthren-3-yl} ester disodium salt [Compound 1a] | – | – | – | – | – | 286 | 3170
